Article PMC5603573, “Cyclipostins and Cyclophostin analogs as promising compounds in the fight against tuberculosis” (Scientific Reports, 2017)
≈ marks a conversion by molar mass, not a printed value. Where two headings read alike, the source gives them in different places.

What was measured:
[1] = tested on: M. tb H37Rv-GFP; experiment: microbe, parasite or virus in culture; type: cell-based, Mycobacterium tuberculosis
[2] = tested on: M. tb H37Rv-GFP replicating inside Raw264.7 macrophages; experiment: microbe, parasite or virus in culture; type: cell-based, Mycobacterium tuberculosis; conditions: for MIC50: read-out: Intracellular macrophage growth MIC50
[3] = in vitro; conditions: mouse
[4] = tested on: M. tb mc^26230-empty vector; experiment: REMA, empty vector strain; type: cell-based, Mycobacterium tuberculosis; conditions: Mycobacterium tuberculosis, REMA
[5] = tested on: serine/cysteine enzymes in M. tb mc^26230 lysate; experiment: Competitive ABPP labelling/enrichment with Desthiobiotin-FP (and TAMRA-FP), LC-MS/MS target identification; type: binding, Mycobacterium tuberculosis; conditions: lysate pre-incubated with 580 µM inhibitor, 37 °C, 90 min
[6] = tested on: M. tb mc^26230 WT; experiment: microbe, parasite or virus in culture; type: cell-based; conditions: REMA
[7] = tested on: Raw264.7 murine macrophages; parameters: method as in PMID 19876393; conditions: 50% host cell toxicity, Raw264.7 macrophages, read-out: Intracellular macrophage growth CC50, cited from earlier work
[8] = tested on: M. tb H37Rv-GFP replicating inside Raw264.7 macrophages; parameters: method as in PMID 19876393; conditions: Raw264.7 macrophages infected with M. tb H37Rv-GFP; cited from earlier work
[9] = tested on: M. tb H37Rv-GFP; parameters: method as in PMID 19876393; conditions: M. tb H37Rv-GFP in broth medium; cited from earlier work
[10] = tested on: M. tb; parameters: method as in earlier work; conditions: combined application with vancomycin; ref 62 (Orlistat), 28 (Lalistat); cited from earlier work
[11] = tested on: M. tb; parameters: method as in PMID 23029536, PMID 27503643, doi:10.1039/C6MD00231E; conditions: M. tb growth, inhibitor alone; cited from earlier work
[12] = Mycobacterium tuberculosis, H37RV, 120 h, read-out: Extracellular growth MIC50
[13] = Mycobacterium tuberculosis, H37RV, 120 h
[14] = read-out: Extracellular growth MIC50

With `CCCCCCCCCC[C@@H]1CC[P@](=O)(OC)OC(C)=C1C(=O)OC` (relative stereo) [CyC 7(α)] the MIC50 [1, 12] was 92.6 µM (≈ 34.7 µg/mL), the MIC50 [2, 13] was 4.5 µM (≈ 1.69 µg/mL) and the CC50 [3] was > 100 µM.

With `CCCCCCCCCCCC[C@@H]1CC[P@](=O)(OC)OC(C)=C1C(=O)OC` (relative stereo) [CyC 8(α)] the MIC50 [2, 13] was 3 to 4 µM (≈ 1.21 to 1.61 µg/mL), the MIC50 [2] was 4.0 µM (≈ 1.61 µg/mL) and the CC50 [3] was > 100 µM.

For `CCCCCC1CCP(=O)(OC)OC(C)=C1C(=O)OC` (stereo not drawn) [CyC 6(β)], the “Extracellular growth MIC50” value [1] was “No effect”, the MIC50 [2, 13] was 12.6 µM (≈ 3.83 µg/mL) and the CC50 [3] was > 100 µM.

`CCCCCCCCCCC1CCP(=O)(OC)OC(C)=C1C(=O)OC` (stereo not drawn) [CyC 7(β)] showed an MIC50 [1, 12] of 16 to 40 µM (≈ 5.99 to 15 µg/mL), an MIC50 [1, 14] of 16.6 µM (≈ 6.22 µg/mL) and an MIC50 [2, 13] of 3 to 4 µM (≈ 1.12 to 1.5 µg/mL). The MIC50 [2] was 3.1 µM (≈ 1.16 µg/mL) and the CC50 [3] was > 100 µM.

With `CCCCCCCCCCCCC1CCP(=O)(OC)OC(C)=C1C(=O)OC` (stereo not drawn) [CyC 8(β)] the MIC50 [1, 12] was > 100 µM, the MIC50 [2, 13] was 11.7 µM (≈ 4.71 µg/mL) and the CC50 [3] was > 20 µM.

In the case of `CCCCCCCCCCCCCCCCOP1(=O)CCCC(C(=O)OC)=C(C)O1` (centres unmarked) [CyC 11], the “antibacterial activity against M. tb (in words)” value (“antibacterial activity” below) [1] is reported as “non-active”.

In the case of `CCCCCCCCCCCCCCCCCCOP1(=O)CCCC(C(=O)OC)=C(C)O1` (centres unmarked) [CyC 12], the “antibacterial activity” value [1] is reported as “non-active”.

In the case of `CCCCCCCCCCCCCCCCOP1(=O)CCC(CCCCCCCCCC)C(C(=O)OC)=C(C)O1` (centres unmarked) [CyC 13], the “antibacterial activity” value [1] is reported as “did not yield any significant antibacterial activity”.

With `CCCCCCCCCCCCCCCCOP1(=O)OC(C)=C(C(=O)OC)CCC1(F)F` (centres unmarked) [CyC 14] the “antibacterial activity” value [1] was “non-active”.

Work on `CCCCCCCCCCCCCCCCOP1(=O)OCCC(C(=O)OC)=C(C)O1` (centres unmarked) [CyC 17] yielded an MIC50 [1, 12] of 0.5 µM (≈ 0.223 µg/mL), an MIC50 ([1]; Mycobacterium tuberculosis, H37RV, read-out: Extracellular MIC50) of ~0.5 µM (≈ 0.223 µg/mL) and an MIC50 [1, 14] of 0.50 µM (≈ 0.223 µg/mL). The “Intracellular macrophage growth MIC50” value [2] was “No effect”, the CC50 [3] was > 100 µM and the MIC50 [4] was 0.52 ± 0.01 µM (≈ 0.232 µg/mL). For the same molecule, the “Effect of pre-treatment on Desthiobiotin-FP labelled bands (SDS-PAGE)” value [5] was “decrease in intensity of bands 1, 2 and 8; or disapearance of bands 3-7 and 9”, the MIC50 ([6]; Mycobacterium tuberculosis, read-out: MIC50) was 0.55 ± 0.023 µM (≈ 0.246 µg/mL) and the MIC50 [6] was 0.55 ± 0.023 µM (≈ 0.246 µg/mL).

In the case of `CCCCCCCCCCCCCCCCO[P@]1(=O)OC[C@@H]2COC(=O)C2=C(C)O1` [CyC 18(α)], the MIC50 [1, 12] is reported as 24.4 µM (≈ 10.8 µg/mL), the “Intracellular macrophage growth MIC50” value [2] is reported as “No effect” and the CC50 [3] is reported as > 100 µM.

For `CCCCCCCCCCCCCCCCO[P@]1(=O)OC[C@H]2COC(=O)C2=C(C)O1` [CyC 18(β), Cyclipostins P], the MIC50 [1, 12] was 1.7 µM (≈ 0.756 µg/mL), the “Intracellular macrophage growth MIC50” value [2] was “No effect” and the CC50 [3] was > 100 µM.

In the case of `CCc1cc(C(N)=S)ccn1` [Ethionamide (ETO), Ethionamide], the CC50 ([7]; listed as ethionamide) is listed as ≥ 120 µM, the CC50 [7] is listed as 120 µM and the “Intracellular macrophage growth MIC50” value [8] is listed as 6.0 µM. The “Extracellular growth MIC50” value [9] was 6.0 µM.

For `NNC(=O)c1ccncc1` [Isoniazid (INH), Isoniazid], the CC50 [7] is given as > 150 µM, the “Intracellular macrophage growth MIC50” value [8] is given as 1.2 µM and the “Extracellular growth MIC50” value [9] is given as 1.2 µM.

In the case of `CCCCCCCCCCC[C@@H](C[C@@H]1OC(=O)[C@H]1CCCCCC)OC(=O)[C@H](CC(C)C)NC=O` [Orlistat], the MIC [10] is given as ~ 6 µM, the MIC drop [10] is given as 16 fold and the MIC [11] is given as 25 to 50 µM.

In the case of `CO[C@H]1/C=C/O[C@@]2(C)Oc3c(C)c(O)c4c(O)c(c(/C=N/N5CCN(C)CC5)c(O)c4c3C2=O)NC(=O)/C(C)=C\C=C\[C@H](C)[C@H](O)[C@@H](C)[C@@H](O)[C@@H](C)[C@H](OC(C)=O)[C@@H]1C` [Rifampicin (RIF), Rifampicin], the CC50 [7] is listed as 24 µM, the “Intracellular macrophage growth MIC50” value [8] is listed as 2.9 µM and the “Extracellular growth MIC50” value [9] is listed as 0.01 µM.

In the case of Lalistat, the MIC [10] is given as 6 to 12 µM, the MIC drop [10] is given as 4 fold and the MIC [11] is given as 25 to 50 µM.

In the case of MmPPOX, the MIC [11] is listed as 25 to 50 µM.
